In brackets after ≈: the same amount, converted by molar mass.

A word on the IC50: it is the concentration that inhibits the measured activity by half. A lower IC50 goes with inhibition by little substance.

In the assay the test system is P388. Briefly: Cytotoxicity against mouse P388 cells after 48 hrs by MTT assay. The assay is classed as functional, cell-based. The note with it: P388, 48 h. Background: Tetrazolium assays rely on reduction of a dye to a coloured formazan, in cell work by metabolically active cells.
Turning to `COC(=O)[C@@]12OC[C@]34[C@H]([C@@H](O)[C@@H]1O)[C@@]1(C)C[C@@H](O)[C@@H](O)[C@@H](C)[C@@H]1C[C@H]3OC(=O)[C@H](OC(=O)C=C(C)C)[C@@H]24` [JAVANICOLIDE C], the IC50 was above 100 µg/mL.

As to `COC(=O)[C@@]12OC[C@]34[C@H]([C@@H](O)[C@@H]1O)[C@@]1(C)[C@H](O)[C@@H](O)C=C(C)[C@@H]1C[C@H]3OC(=O)[C@H](OC(=O)/C=C(\C)C(C)(C)O)[C@@H]24` [JAVANICOLIDE D], it took 18 µg/mL (≈ 31.8 µM) to reach half-maximal inhibition (IC50). The result for `COC(=O)[C@@]12OC[C@]34[C@H]([C@@H](O)[C@@H]1O)[C@@]1(C)C(=O)C(O[C@@H]5O[C@H](CO)[C@@H](O)[C@H](O)[C@H]5O)=C[C@@H](C)[C@@H]1C[C@H]3OC(=O)[C@H](OC(=O)CC(C)C)[C@@H]24` [JAVANICOSIDE B] reads 5.6 µg/mL (≈ 8.18 µM).

`COC(=O)[C@@]12OC[C@@]34[C@@H](CC5=C(C)C(=O)C(O[C@@H]6O[C@H](CO)[C@@H](O)[C@H](O)[C@H]6O)=C[C@]5(C)[C@H]3[C@@H](O)[C@@H]1O)OC(=O)[C@H](OC(=O)C=C(C)C)[C@@H]24` [JAVANICOSIDE C] registered an IC50 of 18 µg/mL (≈ 26.4 µM).

`CC/C(=C\C(=O)O[C@H]1C(=O)O[C@@H]2C[C@H]3[C@H](C)C(=O)C(O[C@@H]4O[C@H](CO)[C@@H](O)[C@H](O)[C@H]4O)=C[C@]3(C)[C@H]3[C@@H](O)[C@H](O)[C@@]4(C(=O)OC)OC[C@]32[C@@H]14)C(C)(C)O` [JAVANICOSIDE D] had an IC50 of 89 µg/mL (≈ 120 µM).

`COC(=O)[C@@]12OC[C@]34[C@H]([C@@H](O)[C@@H]1O)[C@@]1(C)C=C(O[C@@H]5O[C@H](CO)[C@@H](O)[C@H](O)[C@H]5O)C(=O)[C@@H](C)[C@@H]1C[C@H]3OC(=O)[C@H](OC(=O)CC(C)C(C)(C)OC(C)=O)[C@@H]24` (some centres not stated) [JAVANICOSIDE E] displayed an IC50 of 16 µg/mL (≈ 20.8 µM). The result for `CC/C(C)=C/C(=O)O[C@H]1C(=O)O[C@@H]2C[C@H]3[C@H](C)C(=O)C(O[C@@H]4O[C@H](CO)[C@@H](O)[C@H](O)[C@H]4O)=C[C@]3(C)[C@H]3[C@@H](O)[C@H](O)[C@@]4(C(=O)OC)OC[C@]32[C@@H]14` [JAVANICOSIDE F] reads 50 µg/mL (≈ 71.8 µM).

The values are drawn from ChEMBL document CHEMBL1151209, “New quassinoids, javanicolides C and D and javanicosides B--F, from seeds of Brucea javanica” (J Nat Prod, 2004).
